Results reported in article PMC10816640, “Discovery of Novel Diphenyl Acrylonitrile Derivatives That Promote Adult Rats’ Hippocampal Neurogenesis” (International Journal of Molecular Sciences, 2024).
“Also recorded” adds a separate entry of the source.

Assays:
[1] = tested on: progenitor cells in the rodents’ hippocampi; assay: Proliferation stage of neurogenesis: BrdU labeling, rats sacrificed 24 h after BrdU; assay type: in vivo, rat; settings: i.p. 4.0 mg/kg/day for 28 days, BrdU pulse, vs vehicle; for proliferation-promoting activity (number of BrdU+ positive cells): nine-week-old rats (n = 4)
Source text: (§1) Previous in vitro or in vivo studies mainly focused on stimulating the proliferation effect of the small molecules. In this study, a two-step protocol was employed. First, the stimulating function of the compounds on progenitor cells in the rodents’ hippocampi was examined with using bromodeoxyuridine (BrdU) labeling. Next, the potent compounds were further screened to ascertain their ability to promote the differentiation of neural progenitor cells, as confirmed by dual labeling of BrdU and NeuN (neuronal nuclear antigen).
Adult rats were administered intraperitoneally with the prepared compounds at a dose of 4.0 mg/kg/day for a period of 28 days, followed by a BrdU pulse. After 24 h, the rats were sacrificed, and their brain tissues were isolated and cryosectioned. Immunohistochemical staining was performed and eight brain tissue slices were randomly selected for statistical analyzing.
Eight-week-old (or 10-week-old) SD male rats purchased from Peking University Health Science Center were acclimatized for one week at the Beijing Institute of Technology. All experimental protocols strictly adhered to the regulations governing the management of experimental animals and the animal ethics policy of the Beijing Institute of Technology.
(§2) The compounds were dissolved in reagent-grade soybean oil containing 10% ethanol to reach a drug concentration of 2.8 mg/mL. The rats in the experimental group received intraperitoneal injections of the compounds at a dose of 4.0 mg/kg/d for 28 consecutive days. As a control, the vehicle group was administered injections of reagent-grade soybean oil containing 10% ethanol. BrdU (Sigma-Aldrich, St. louis, MA, USA) solution, prepared in physiological saline at a concentration of 10 mg/mL, was administered to all rats on day 29. Each rat received two injections of BrdU at a dosage of 50 mg/kg, with a 2 h interval between injections. The rats were euthanized 24 h (or 28 days) after the final BrdU injection.
(§3) Two or four rats per group were anesthetized using pentobarbital sodium (70 mg/kg) and subsequently perfused with physiological saline. The brain tissue was carefully dissected and fixed in 4% paraformaldehyde at 4 °C for one week. Next, the brain tissue underwent dehydration using a phosphate-buffered saline (PBS) solution containing 20% to 30% sucrose. Finally, the brain tissue was cryosectioned into slices with a thickness of 30 μm, and eight slices were randomly selected for further analysis.
The assessment of new cell proliferation was conducted using BrdU staining. To eliminate endogenous peroxides, sections were exposed to 1% H2O2 for 30 min at RT. Cellular denaturation was achieved by treating the sections with 2 M HCl at 37 °C for 1 h, followed by rinsing in 0.1 M borate buffer (pH 8.5). Tissue sections were subjected to blocking in a solution consisting of 5% goat serum and 0.5% Triton X-100 in PBS at RT for 1–2 h. The specimens were then incubated overnight at 4 °C with a mouse primary antibody specific to BrdU (diluted at 1:500; Millipore, Billerica, MA, USA). Subsequently, the DAB kit was employed for 2 h of incubation at RT.
(§4) The data were presented as mean ± SEM (standard error of the mean) and visualized using GRAPHPAD PRISM 6 (Graphpad Software, La Jolla, CA, USA). Statistical analysis was conducted utilizing one-way analysis of variance (ANOVA) followed by a post hoc test. Subsequent to the statistical treatment, the observed discrepancies were determined to be statistically significant (p < 0.05).

[2] = tested on: newborn neural progenitor cells (differentiation into mature neurons); assay: Differentiation stage of neurogenesis: NeuN/BrdU double staining, rats sacrificed 28 days after BrdU; assay type: in vivo, rat; settings: for neurogenesis-promoting activity (number of NeuN+ and BrdU+ cells), differentiation stage: nine-week-old rats (n = 4), i.p. 4.0 mg/kg
Source text: as §1
The study employed a rat model, wherein nine-week-old rats were administered intraperitoneally with the compound at a dose of 4.0 mg/kg/day for 28 days and then treated with a pulse of BrdU. Instead of sacrificing the rats 24 h after the BrdU injections, the rats were sacrificed after another 28 days. The brains were then isolated and cryosectioned. Eight randomly selected slices were subjected to immunohistochemical staining. This staining enabled the co-localization of the BrdU-incorporated cells with the NeuN marker, enabling the definition of the compounds that could promote the differentiation of newborn neural progenitor cells into mature functional neurons.
as §2, §3
The differentiation process of NPCs was visualized through the utilization of the NeuN/BrdU double staining technique. Tissue sections were subjected to an incubation period in a blocking buffer at RT for 1 to 2 h. The specimens were exposed to a rabbit anti-NeuN antibody (diluted at 1:500, Abcam, Cambridge, MA, UK) and a primary antibody, BrdU (diluted at 1:500), overnight at 4 °C. Afterwards, the sections were treated with anti-mouse 488 and anti-rabbit TRITC secondary antibodies for 2 h at RT.
as §4

hCMEC/D3 cells = assay: CCK-8 assay for cytotoxicity; assay type: cell-based; settings: hCMEC/D3 cell lines, CCK-8, 48 h incubation
Experimental: hCMEC/D3 cells were obtained from the Cell Resource Center, Peking Union Medical College (PCRC). All cells were acquired in 2023 and were maintained in culture for no more than 10 continuous passages. The cells were cultured in DMEM (11995065, Gibco, Grand Island, NY, USA) supplemented with 10% FBS (164210-50, Procell, Austin, TX, USA), 100 units of penicillin, and […] of streptomycin (PB180120, Procell).
hCMEC/D3 cells (5 × 10^3) were seeded into 96-well plates in 90 μL of DMEM medium containing 10% fetal bovine serum per well. All test compounds were formulated as 10 mM stock solutions in DMSO (final concentration ≤ 0.5%). After overnight incubation, the test compound stock solution was diluted with DMEM medium containing 10% fetal bovine serum to every target concentration, and 10 μL of each was added to each well. Three parallel experiments were set up for each compound. After incubation for 48 h, 10 μL of CCK-8 reagent was added to each well in sequence according to the manufacturer’s instructions. After incubating in a 37 °C incubator for 1–2 h, the absorbance was measured at a wavelength of 450 nm, using a wavelength of 620 nm as a reference, and detected with a ThermoScientific Multiskan FC (Thermo Fisher Scientific). The graphs are representative results, and this experiment was independently repeated three times with similar results.

[3] = tested on: newborn cells in the subgranular zone; assay: BrdU+ newborn cells, rats sacrificed 28 days after BrdU; assay type: in vivo, rat; settings: nine-week-old rats (n = 2), i.p. 4.0 mg/kg/day for 28 days, BrdU pulse, Figure 7A
Experimental: The study employed a rat model, wherein nine-week-old rats were administered intraperitoneally with the compound at a dose of 4.0 mg/kg/day for 28 days and then treated with a pulse of BrdU. Instead of sacrificing the rats 24 h after the BrdU injections, the rats were sacrificed after another 28 days. The brains were then isolated and cryosectioned. Eight randomly selected slices were subjected to immunohistochemical staining. This staining enabled the co-localization of the BrdU-incorporated cells with the NeuN marker, enabling the definition of the compounds that could promote the differentiation of newborn neural progenitor cells into mature functional neurons. The compounds were dissolved in reagent-grade soybean oil containing 10% ethanol to reach a drug concentration of 2.8 mg/mL. The rats in the experimental group received intraperitoneal injections of the compounds at a dose of 4.0 mg/kg/d for 28 consecutive days. As a control, the vehicle group was administered injections of reagent-grade soybean oil containing 10% ethanol. BrdU (Sigma-Aldrich, St. louis, MA, USA) solution, prepared in physiological saline at a concentration of 10 mg/mL, was administered to all rats on day 29. Each rat received two injections of BrdU at a dosage of 50 mg/kg, with a 2 h interval between injections. The rats were euthanized 24 h (or 28 days) after the final BrdU injection. Two or four rats per group were anesthetized using pentobarbital sodium (70 mg/kg) and subsequently perfused with physiological saline. The brain tissue was carefully dissected and fixed in 4% paraformaldehyde at 4 °C for one week. Next, the brain tissue underwent dehydration using a phosphate-buffered saline (PBS) solution containing 20% to 30% sucrose. Finally, the brain tissue was cryosectioned into slices with a thickness of 30 μm, and eight slices were randomly selected for further analysis. The assessment of new cell proliferation was conducted using BrdU staining. To eliminate endogenous peroxides, sections were exposed to 1% H2O2 for 30 min at RT. Cellular denaturation was achieved by treating the sections with 2 M HCl at 37 °C for 1 h, followed by rinsing in 0.1 M borate buffer (pH 8.5). Tissue sections were subjected to blocking in a solution consisting of 5% goat serum and 0.5% Triton X-100 in PBS at RT for 1–2 h. The specimens were then incubated overnight at 4 °C with a mouse primary antibody specific to BrdU (diluted at 1:500; Millipore, Billerica, MA, USA). Subsequently, the DAB kit was employed for 2 h of incubation at RT. The differentiation process of NPCs was visualized through the utilization of the NeuN/BrdU double staining technique. Tissue sections were subjected to an incubation period in a blocking buffer at RT for 1 to 2 h. The specimens were exposed to a rabbit anti-NeuN antibody (diluted at 1:500, Abcam, Cambridge, MA, UK) and a primary antibody, BrdU (diluted at 1:500), overnight at 4 °C. Afterwards, the sections were treated with anti-mouse 488 and anti-rabbit TRITC secondary antibodies for 2 h at RT. The data were presented as mean ± SEM (standard error of the mean) and visualized using GRAPHPAD PRISM 6 (Graphpad Software, La Jolla, CA, USA). Statistical analysis was conducted utilizing one-way analysis of variance (ANOVA) followed by a post hoc test. Subsequent to the statistical treatment, the observed discrepancies were determined to be statistically significant (p < 0.05).

[4] = tested on: progenitors in rodents’ hippocampi; parameters: method as in PMID 28525839; settings: cited from earlier work

CC(=O)Nc1ccc(/C=C(\C#N)c2ccc3c(c2)OCO3)cc1 [32a, (Z)-N-(4-(2-(benzo[d][1, 3]dioxol-5-yl)-2-cyanovinyl)phenyl)acetamide]
proliferation-promoting activity (number of BrdU+ positive cells) ([1]; Figure 8, 4 mg/kg/day): significant proliferation-promoting activity; also recorded: exhibited proliferative activity | neurogenesis-promoting activity (number of NeuN+ and BrdU+ cells), differentiation stage ([2]; Figure 9, 4 mg/kg): significant neurogenesis-promoting activity; also recorded: better activity than the clinical drug NSI-189 | IC50 (hCMEC/D3 cells): 109 ± 12.9 µM

CC(C)NC(=O)c1ccc(/C=C/c2ccc3c(c2)OCO3)cc1 [39b, (E)-4-(2-(benzo[d][1, 3]dioxol-5-yl)vinyl)-N-isopropylbenzamide]
proliferation-promoting activity (number of BrdU+ newborn cells) ([1]; eleven-week-old rats (n = 2), Figures 3-6, 4 mg/kg/day): significant proliferation-promoting activity; also recorded: activity comparable to that found in amides 8c, 8d, and 29b | neurogenesis-promoting activity (number of NeuN+ and BrdU+ cells, newborn neurons) ([2]; nine-week-old rats (n = 2), i.p. 4.0 mg/kg/day for 28 days, BrdU pulse, Figure 7B): ranked second in terms of activity, without statistical significance | proliferative activity over the longer 28 day period (number of BrdU+ cells) [3]: could promote the proliferation of progenitors

CC(C)CCNc1ncccc1C(=O)N1CCN(Cc2ccccc2)CC1 [NSI-189, reference compound]
proliferation-promoting activity (number of BrdU+ positive cells) ([1]; Figure 8): inactive | neurogenesis-promoting activity (number of NeuN+ and BrdU+ cells), differentiation stage ([2]; Figure 9): no significant neurogenesis-promoting activity

CC(=O)Nc1ccc(/C=C/c2ccc3c(c2)OCO3)cc1 [WS-6, N-trans-3′,4′-methylenedioxystilben-4-yl acetamide]
promoting the proliferation of progenitors and differentiation into neurons [4]: excellent capacity
